Reference: ChEMBL document CHEMBL4414672, “Synthesis of certain benzothieno[3,2-d]pyrimidine derivatives as a selective SIRT2 inhibitors” (Eur J Med Chem, 2020)

Legend:
Type in all cases: functional
[1] = tested on: TK-10; experiment: Growth inhibition of human TK10 cells at 10^-5 M incubated for 48 hrs by sulforhodamine B assay; conditions: TK-10, 48 h, read-out: GI
[2] = tested on: SF-295; experiment: Growth inhibition of human SF295 cells at 10^-5 M incubated for 48 hrs by sulforhodamine B assay; conditions: SF-295, 48 h, read-out: GI
[3] = tested on: MOLT-4; experiment: Growth inhibition of human MOLT4 cells at 10^-5 M incubated for 48 hrs by sulforhodamine B assay; conditions: MOLT-4, 48 h, read-out: GI
[4] = tested on: 786-0; experiment: Growth inhibition of human 786-0 cells at 10^-5 M incubated for 48 hrs by sulforhodamine B assay; conditions: 786-0, 48 h, read-out: GI
[5] = tested on: T47D; experiment: Growth inhibition of human T47D cells at 10^-5 M incubated for 48 hrs by sulforhodamine B assay; conditions: read-out: GI
[6] = tested on: Hs-578T; experiment: Growth inhibition of human Hs 578T cells at 10^-5 M incubated for 48 hrs by sulforhodamine B assay; conditions: read-out: GI
[7] = tested on: SK-OV-3; experiment: Growth inhibition of human SKOV3 cells at 10^-5 M incubated for 48 hrs by sulforhodamine B assay; conditions: SK-OV-3, 48 h, read-out: GI
[8] = tested on: SR; experiment: Growth inhibition of human SR cells at 10^-5 M incubated for 48 hrs by sulforhodamine B assay; conditions: read-out: GI
[9] = tested on: OVCAR-8; experiment: Growth inhibition of human OVCAR8 cells at 10^-5 M incubated for 48 hrs by sulforhodamine B assay; conditions: OVCAR-8, 48 h, read-out: GI
[10] = tested on: MDA-MB-435; experiment: Growth inhibition of human MDA-MB-435 cells at 10^-5 M incubated for 48 hrs by sulforhodamine B assay; conditions: MDA-MB-435, 48 h, read-out: GI
[11] = tested on: CAKI-1; experiment: Growth inhibition of human Caki1 cells at 10^-5 M incubated for 48 hrs by sulforhodamine B assay; conditions: CAKI-1, 48 h, read-out: GI
[12] = tested on: KM12; experiment: Growth inhibition of human KM12 cells at 10^-5 M incubated for 48 hrs by sulforhodamine B assay; conditions: KM12, 48 h, read-out: GI
[13] = tested on: EKVX; experiment: Growth inhibition of human EKVX cells at 10^-5 M incubated for 48 hrs by sulforhodamine B assay; conditions: read-out: GI
[14] = tested on: UACC-257; experiment: Growth inhibition of human UACC257 cells at 10^-5 M incubated for 48 hrs by sulforhodamine B assay; conditions: UACC-257, 48 h, read-out: GI
[15] = tested on: HL-60(TB); experiment: Growth inhibition of human HL-60(TB) cells at 10^-5 M incubated for 48 hrs by sulforhodamine B assay; conditions: HL-60, 48 h, read-out: GI
[16] = tested on: OVCAR-5; experiment: Growth inhibition of human OVCAR5 cells at 10^-5 M incubated for 48 hrs by sulforhodamine B assay; conditions: OVCAR-5, 48 h, read-out: GI
[17] = tested on: LOX IMVI; experiment: Growth inhibition of human LOXIMVI cells at 10^-5 M incubated for 48 hrs by sulforhodamine B assay; conditions: read-out: GI
[18] = tested on: U-251; experiment: Growth inhibition of human U251 cells at 10^-5 M incubated for 48 hrs by sulforhodamine B assay; conditions: U-251, 48 h, read-out: GI
[19] = tested on: IGROV-1; experiment: Growth inhibition of human IGROV1 cells at 10^-5 M incubated for 48 hrs by sulforhodamine B assay; conditions: IGROV-1, 48 h, read-out: GI
[20] = tested on: SK-MEL-28; experiment: Growth inhibition of human SK-MEL-28 cells at 10^-5 M incubated for 48 hrs by sulforhodamine B assay; conditions: SK-MEL-28, 48 h, read-out: GI
[21] = tested on: SNB-75; experiment: Growth inhibition of human SNB75 cells at 10^-5 M incubated for 48 hrs by sulforhodamine B assay; conditions: SNB-75, 48 h, read-out: GI
[22] = tested on: SW-620; experiment: Growth inhibition of human SW620 cells at 10^-5 M incubated for 48 hrs by sulforhodamine B assay; conditions: SW-620, 48 h, read-out: GI
[23] = tested on: SF-539; experiment: Growth inhibition of human SF539 cells at 10^-5 M incubated for 48 hrs by sulforhodamine B assay; conditions: SF-539, 48 h, read-out: GI
[24] = tested on: NCI-H226; experiment: Growth inhibition of human NCI-H226 cells at 10^-5 M incubated for 48 hrs by sulforhodamine B assay; conditions: NCI-H226, 48 h, read-out: GI
[25] = tested on: COLO 205; experiment: Growth inhibition of human COLO205 cells at 10^-5 M incubated for 48 hrs by sulforhodamine B assay; conditions: COLO 205, 48 h, read-out: GI
[26] = tested on: HOP-62; experiment: Growth inhibition of human HOP62 cells at 10^-5 M incubated for 48 hrs by sulforhodamine B assay; conditions: HOP-62, 48 h, read-out: GI
[27] = tested on: RXF 393; experiment: Growth inhibition of human RXF393 cells at 10^-5 M incubated for 48 hrs by sulforhodamine B assay; conditions: RXF 393, 48 h, read-out: GI
[28] = tested on: M14; experiment: Growth inhibition of human M14 cells at 10^-5 M incubated for 48 hrs by sulforhodamine B assay; conditions: M14, 48 h, read-out: GI
[29] = tested on: UACC-62; experiment: Growth inhibition of human UACC62 cells at 10^-5 M incubated for 48 hrs by sulforhodamine B assay; conditions: UACC-62, 48 h, read-out: GI
[30] = tested on: HCT-116; experiment: Growth inhibition of human HCT116 cells at 10^-5 M incubated for 48 hrs by sulforhodamine B assay; conditions: HCT-116, 48 h, read-out: GI
[31] = tested on: DU-145; experiment: Growth inhibition of human DU145 cells at 10^-5 M incubated for 48 hrs by sulforhodamine B assay; conditions: DU-145, 48 h, read-out: GI
[32] = tested on: HOP-92; experiment: Growth inhibition of human HOP92 cells at 10^-5 M incubated for 48 hrs by sulforhodamine B assay; conditions: HOP-92, 48 h, read-out: GI
[33] = tested on: NCI-H460; experiment: Growth inhibition of human NCI-H460 cells at 10^-5 M incubated for 48 hrs by sulforhodamine B assay; conditions: NCI-H460, 48 h, read-out: GI
[34] = tested on: A549; experiment: Growth inhibition of human A549/ATCC cells at 10^-5 M incubated for 48 hrs by sulforhodamine B assay; conditions: A549, 48 h, read-out: GI
[35] = tested on: MDA-MB-231; experiment: Growth inhibition of human MDA-MB-231 cells at 10^-5 M incubated for 48 hrs by sulforhodamine B assay; conditions: MDA-MB-231, 48 h, read-out: GI
[36] = tested on: HCT-15; experiment: Growth inhibition of human HCT15 cells at 10^-5 M incubated for 48 hrs by sulforhodamine B assay; conditions: HCT-15, 48 h, read-out: GI
[37] = tested on: SK-MEL-5; experiment: Growth inhibition of human SK-MEL-5 cells at 10^-5 M incubated for 48 hrs by sulforhodamine B assay; conditions: SK-MEL-5, 48 h, read-out: GI
[38] = tested on: HCC 2998; experiment: Growth inhibition of human HCC2998 cells at 10^-5 M incubated for 48 hrs by sulforhodamine B assay; conditions: HCC 2998, 48 h, read-out: GI

Compound	inhibition of growth at 10 µM [1] [%]	inhibition of growth at 10 µM [2] [%]	inhibition of growth at 10 µM [3] [%]	inhibition of growth at 10 µM [4] [%]	inhibition of growth at 10 µM [5] [%]	inhibition of growth at 10 µM [6] [%]	inhibition of growth at 10 µM [7] [%]	inhibition of growth at 10 µM [8] [%]	inhibition of growth at 10 µM [9] [%]	inhibition of growth at 10 µM [10] [%]	inhibition of growth at 10 µM [11] [%]	inhibition of growth at 10 µM [12] [%]	inhibition of growth at 10 µM [13] [%]	inhibition of growth at 10 µM [14] [%]	inhibition of growth at 10 µM [15] [%]	inhibition of growth at 10 µM [16] [%]	inhibition of growth at 10 µM [17] [%]	inhibition of growth at 10 µM [18] [%]	inhibition of growth at 10 µM [19] [%]	inhibition of growth at 10 µM [20] [%]	further results
O=C1/C(=C\c2ccccc2O)Sc2ccc(Cl)cc21	-16	-6.81	11.4	-0.39	22.2	3.91	5.06	26.2	1.53	-5.13	15.9	-0.47	13.3	-1.33	-1.87	-0.88	9.63	-8.52	0.45	-14.6	inhibition of growth at 10 µM [21]: 22.3%; inhibition of growth at 10 µM [22]: -11.4%; inhibition of growth at 10 µM [23]: -6.81%; inhibition of growth at 10 µM [24]: 4.98%; inhibition of growth at 10 µM [25]: -5.97%; inhibition of growth at 10 µM [26]: 5.99%; inhibition of growth at 10 µM [27]: -3.05%; inhibition of growth at 10 µM [28]: 0.22%; inhibition of growth at 10 µM [29]: 22.3%; inhibition of growth at 10 µM [30]: 10%; inhibition of growth at 10 µM [31]: -12.3%; inhibition of growth at 10 µM [32]: 3%; inhibition of growth at 10 µM [33]: -8.83%; inhibition of growth at 10 µM [34]: -0.44%; inhibition of growth at 10 µM [35]: 11%; inhibition of growth at 10 µM [36]: -7.07%; inhibition of growth at 10 µM [37]: 4.61%; inhibition of growth at 10 µM [38]: -25.6%
NC(=O)CSC1=Nc2c(sc3ccc(Cl)cc23)C(c2cccc([N+](=O)[O-])c2)N1 (stereo unspecified)	-16.6	-2.8	3.86	-0.38	23.9	1.5	4.62	4.41	-3.56	-11.3	19.2	-8.1	23.6	-1.31	-2.94	-5.8	3.56	-1.2	22	-21.2	inhibition of growth at 10 µM [21]: 5.27%; inhibition of growth at 10 µM [22]: -4.82%; inhibition of growth at 10 µM [23]: 0.81%; inhibition of growth at 10 µM [24]: 10.4%; inhibition of growth at 10 µM [25]: -5.21%; inhibition of growth at 10 µM [26]: 6.5%; inhibition of growth at 10 µM [27]: -12.1%; inhibition of growth at 10 µM [28]: -2.31%; inhibition of growth at 10 µM [29]: 6.2%; inhibition of growth at 10 µM [30]: 6.66%; inhibition of growth at 10 µM [31]: -14.8%; inhibition of growth at 10 µM [32]: -21.6%; inhibition of growth at 10 µM [33]: 19.3%; inhibition of growth at 10 µM [34]: -4.42%; inhibition of growth at 10 µM [35]: 7.36%; inhibition of growth at 10 µM [36]: -3.38%; inhibition of growth at 10 µM [37]: 4.8%; inhibition of growth at 10 µM [38]: -5.21%
